Experimental data: patent US20120027857A1, “CONTROLLED RELEASE PHARMACEUTICAL CO[…]-[…]-VENLAFAXINE” (LEK PHARMACEUTICALS D.D., priority 2008, published 2012)

Experiments:
pH of 1% water solution = type: physicochemical
[1] = Dissolution test, USP apparatus 1, 900 ml water with 0.9% NaCl, 150 rpm, 37°C, HPLC; type: physicochemical; settings: compared to O-desmethyl-venlafaxine succinate from the tablet having the same composition
Method: Dissolution properties were evaluated by in vivo relevant dissolution test. USP apparatus 1 was used for testing. 900 ml of water with 0.9% NaCl is placed in the dissolution vessel, mixed with a paddle at 150 rpm and kept at 37±0.5° C. Samples were taken from the dissolution vessel at regular time intervals and the concentrations of O-desmethyl-venlafaxine were analyzed by HPLC.
Pharmaceutical compositions might be optionally placed for 60 minutes in 900 ml 0.01 M HCl before being placed in 900 ml water with 0.9% NaCl.

## CN(C)CC(c1ccc(O)cc1)C1(O)CCCCC1.O=C(O)c1cc(=O)[nH]c(=O)[nH]1 (stereo not drawn) [O-desmethyl-venlafaxine orotate]
pH of 1% water solution
  pH (1% water solution): 3.3
[1]
  dissolution of salt from matrix tablet: much faster

## CN(C)CC(c1ccc(O)cc1)C1(O)CCCCC1.O=C[C@H](O)[C@@H](O)[C@H](O)[C@H](O)C(=O)O (stereo not drawn) [O-desmethyl-venlafaxine glucuronate]
pH of 1% water solution
  pH (1% water solution): 6.14
